Earlier results in patent US20130140210A1, “LOW-DOSED SOLID ORAL DOSAGE FORMS FOR HRT” (BAYER INTELLECTUAL PROPERTY GMBH, priority 2010, published 2013).

Tested on: moderate or severe hot flushes in menopausal women
Settings: 2 mg E2

C[C@]12CC[C@@H]3c4ccc(O)cc4CC[C@H]3[C@@H]1CC[C@@H]2O [E2, estradiol]
estrogen-related adverse events: increased estrogen-related adverse events
